Read-outs that look alike come from different tables or passages of the source.
Experiments:
[1] = molecular target: His-tagged KRAS G12D protein (Homo sapiens (Human), UniProt P01116, G12D); test: KRAS G12D TR-FRET Assay; assay type: binding
In short: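 His-tagged KRAS G12D (diluted to 20 nM in pH 7.4 HEPES buffer with 10 mM MgCl2 and 10 μM GDP) was preincubated with titrated compound for 30 min at room temperature. Biotinylated KRPep-2d peptide (diluted to 20 nM) was then added for 1 h, and displacement was monitored by TR-FRET.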

[2] = molecular target: GDP-bound KRAS protein (aa 1-169), containing both G12D and C118A amino acid substitutions (Homo sapiens (Human), UniProt P01116, C118A/G12D); test: KRAS G12D Coupled Nucleotide Exchange Assay; assay type: biochemical
GDP-bound KRAS protein (aa 1-169), containing both G12D and C118A amino acid substitutions, sequence (P01116 other isoform, or with tags, fused parts or gaps G12D/C118A): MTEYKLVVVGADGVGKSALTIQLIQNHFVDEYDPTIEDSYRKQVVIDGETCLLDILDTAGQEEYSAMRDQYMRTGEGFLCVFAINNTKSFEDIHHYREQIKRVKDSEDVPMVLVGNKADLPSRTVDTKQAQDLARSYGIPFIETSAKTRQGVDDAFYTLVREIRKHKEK

[3] = system: Phosphorylation of ERK1/2 in AsPC-1 cells; test: Phospho-ERK1/2 MSD Assay; assay type: cell-based, human; settings: Homo sapiens, ASPC1, 2 h
Protocol: AsPC-1 (ATCC® CRL-1682™) cells were cultured in RPMI 1640 Medium (ThermoFisher Scientific 11875093) containing 10% fetal bovine serum (ThermoFisher Scientific 16000044) and 1× penicillin-streptomycin-glutamine (ThermoFisher Scientific 10378016). Sixteen hours prior to compound treatment, AsPC-1 cells were seeded in 96-well cell culture plates at a density of 25,000 cells/well and incubated at 37° C., 5% CO2. A compound dose-response titration was diluted in growth media, added to appropriate wells of a cell culture plate, and then incubated at 37° C., 5% CO2 for 2 hours. Following compound treatment, cells were washed with ice-cold Dulbecco's phosphate-buffered saline, no Ca^2+ or Mg^2+ (ThermoFisher Scientific 14190144), and then lysed in RIPA buffer (50 mM Tris-HCl pH 7.5, 1% Igepal, 0.5% sodium deoxycholate, 150 mM NaCl, and 0.5% sodium dodecyl sulfate) containing protease inhibitors (Roche 4693132001) and phosphatase inhibitors (Roche 4906837001). Phosphorylation of ERK1/2 in compound-treated lysates was assayed using Phospho-ERK1/2 Whole Cell Lysate kits (Meso Scale Discovery K151DWD) according to the manufacturer's protocol. Assay plates were read on a Meso Scale Discovery Sector Imager 6000, and data were analyzed using a 4-parameter logistic model to calculate IC50 values.

[4] = read-out: KRAS G12D Binding IC50
[5] = read-out: KRAS G12D Coupled Exchange IC50
[6] = read-out: 2 h p-ERK (AsPC-1 cells), IC50

His-tagged KRAS G12D protein, sequence (P01116 other isoform, or with tags, fused parts or gaps G12D): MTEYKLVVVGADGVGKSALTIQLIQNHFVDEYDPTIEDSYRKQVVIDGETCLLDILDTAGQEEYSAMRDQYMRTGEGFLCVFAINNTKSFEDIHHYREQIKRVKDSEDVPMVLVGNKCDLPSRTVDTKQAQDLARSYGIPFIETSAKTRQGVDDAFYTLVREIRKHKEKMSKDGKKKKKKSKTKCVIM

Row | Compound | IC50 [1, 4] | IC50 [2, 5] | IC50 [3, 6] | IC50 ([1]; TR-FRET, read-out: KRAS G12D Binding) | IC50 ([2]; 2 hours compound pre-incubation, read-out: KRAS G12D Coupled Exchange) | IC50 ([3]; read-out: 2 h p-ERK (AsPC-1 cells))
1 | O=C1CCCc2c(F)ccc3cccc(c23)-c2ncc3c(nc(OC[C@@]45CCCN4C[C@H](F)C5)nc3c2F)N2CCC[C@H](C2)N1 [Example 68, (15R)-22,31-Difluoro-8-(((2R,7aS)-2-fluorotetrahydro-1H-pyrrolo[1,2-a]pyrrol-7a(5H)-yl)methoxy)-3,7,9,11,16-pentaazahexacyclo[19.7.1.1˜2,6˜.1˜11,15˜.0˜5,10˜.0˜25,29˜]hentriaconta-1(28),2(31),3,5,7,9,21,23,25(29),26-decaen-17-one 2,2,2-trifluoroacetate] | 33 nM | 16 nM | 931 nM |  |  | 
2 | Cc1cc2[nH]ncc2c2c1CCCCC(=O)N[C@@H]1COCCN(C1)c1nc(OC[C@@]34CCCN3C[C@H](F)C4)nc3c(F)c-2ncc13 [Example 66, (26S)-32-fluoro-4-(((2R,7aS)-2-fluorotetrahydro-1H-pyrrolo[1,2-a]pyrrol-7a(5H)-yl)methoxy)-18-methyl-28-oxa-1,3,5,9,14,15,25-heptaazahexacyclo [24.4.1.1~6,10~.0~2,7~.0~11,19~.0~12,16~]dotriaconta-2,4,6,8,10(32),11,13,16,18-nonaen-24-one] | 34 nM | 26 nM | 4700 nM |  |  | 
3 | Fc1c2ncc3c(nc(OC[C@@]45CCCN4C[C@H](F)C5)nc13)N1CCOC[C@]3(C1)C[C@@H](C3)OCCCCc1c(Cl)cc3[nH]ncc3c1-2 [Example 263, (1S,3S)-10-chloro-33-fluoro-24-(((2R,7aS)-2-fluorotetrahydro-1H-pyrrolo[1,2-a]pyrrol-7a(5H)-yl)methoxy)-4,30-dioxa-13,14,19,23,25,27-hexaazaheptacyclo[25.4.1.1~1,3~.1~18,22~.0~9,17~.0~12,16~.0~21,26~]tetratriaconta-9,11,14,16,18(33),19,21,23,25-nonaene] | 6 nM | 4 nM | 42.4 nM |  |  | 
4 | CN1CCO[C@@H](COc2nc3c4cnc(c(F)c4n2)-c2c(c(Cl)cc4[nH]ncc24)CCCOC(=O)O[C@@H]2COCCN3C2)C1 [Example 124] | 20 nM | 15 nM | 479 nM |  |  | 
5 | Cc1cc2[nH]ncc2c2c1CCOC(=O)O[C@H]1C[C@]3(CCCN(C3)c3nc(OC[C@@]45CCCN4C[C@H](F)C5)nc4cc-2nnc34)C1 [Example 358, (1R,3S)-24-(((2R,7aS)-2-fluorotetrahydro-1H-pyrrolo[1,2-a]pyrrol-7a(5H)-yl)methoxy)-10-methyl-4,6-dioxa-13,14,19,20,23,25,27-heptaazaheptacyclo[25.3.1.1~1,3~.1~18,22~.0~9,17~.0~12,16~.0~21,26~]tritriaconta-9,11,14,16,18(32),19,21,23,25-nonaen-5-one] | 24 nM | 16 nM | 384 nM |  |  | 
6 | Cc1cc2[nH]ncc2c2c1C[C@H](C)COC(=O)O[C@@H]1CCCN(C1)c1nc(OC[C@@]34CCCN3C[C@H](F)C4)nc3c(F)c-2ncc13 (single isomer, unassigned) [Example 215] | 15 nM | 12 nM | 108 nM |  |  | 
7 | Cc1cc2[nH]ncc2c2c1CCCCC(=O)N(C)[C@@H]1CCCN(C1)c1nc(OC[C@@]34CCCN3C[C@H](F)C4)nc3c(F)c-2ncc13 [Example 50, (17R)-30-fluoro-24-(((2R,7aS)-2-fluorotetrahydro-1H-pyrrolo[1,2-a]pyrrol-7a(5H)-yl)methoxy)-9,16-dimethyl-5,6,16,21,23,25,29-heptaazahexacyclo[24.3.1.1~17,21~.0~2,10~.0~3,7~.0~22,27~]hentriaconta-1(30),2,4,7,9,22,24,26,28-nonaen-15-one] | 7 nM | 4 nM | 169 nM |  |  | 
8 | C[C@H](Oc1nc2c3cnc(c(F)c3n1)-c1c(c(Cl)cc3[nH]ncc13)CCCOC(=O)O[C@@H]1COCCN2C1)[C@@H]1CCCN1C [Example 204, (26S)-18-chloro-32-fluoro-4-((1S)-1-((2S)-1-methyl-2-pyrrolidinyl)ethoxy)-23,25,28-trioxa-1,3,5,9,14,15-hexaazahexacyclo[24.4.1.1~6,10~.0~2,7~.0~11,19~.0~12,16~]dotriaconta-2,4,6,8,10(32),11,13,16,18-nonaen-24-one] | 34 nM | 16 nM | 429 nM |  |  | 
9 | Cc1cc2[nH]ncc2c2c1CCCC(F)C(=O)N[C@@H]1CCCCN(C1)c1nc(OC[C@@]34CCCN3C[C@H](F)C4)nc3c(F)c-2ncc13 (single isomer, unassigned) [Example 159] | 6 nM | 5 nM | 79.6 nM |  |  | 
10 | C[C@]12C[C@]3(CN(CCO3)c3nc(OC[C@@]45CCCN4C[C@H](F)C5)nc4c(F)c(ncc34)-c3c(c(Cl)cc4[nH]ncc34)CCOC(=O)O1)C2 [Example 322, (1S,3S)-10-chloro-32-fluoro-24-(((2R,7aS)-2-fluorotetrahydro-1H-pyrrolo[1,2-a]pyrrol-7a(5H)-yl)methoxy)-3-methyl-4,6,30-trioxa-13,14,19,23,25,27-hexaazaheptacyclo[25.3.1.1~1,3~.1~18,22~.0~9,17~.0~12,16~.0~21,26~]tritriaconta-9,11,14,16,18(32),19,21,23,25-nonaen-5-one] | 366 nM | 156 nM | 589 nM |  |  | 
11 | O=C1COCCc2c(Cl)cc3[nH]ncc3c2-c2ncc3c(nc(OC[C@@]45CCCN4C[C@H](F)C5)nc3c2F)N2CCCC[C@H](C2)N1 [Example 271, (26R)-18-chloro-32-fluoro-4-(((2R,7aS)-2-fluorotetrahydro-1H-pyrrolo[1,2-a]pyrrol-7a(5H)-yl)methoxy)-22-oxa-1,3,5,9,14,15,25-heptaazahexacyclo[24.4.1.1~6,10~.0~2,7~.0~11,19~.0~12,16~]dotriaconta-2,4,6,8,10(32),11,13,16,18-nonaen-24-one] | 13 nM | 2 nM | 500 nM |  |  | 
12 | Cn1ncc2cc(Cl)c3c(c21)-c1ncc2c(nc(OC[C@@]45CCCN4C[C@H](F)C5)nc2c1F)N1CCOC[C@H](C1)OC(=O)OCCC3 [Example 335, (26S)-18-chloro-32-fluoro-4-(((2R,7aS)-2-fluorotetrahydro-1H-pyrrolo[1,2-a]pyrrol-7a(5H)-yl)methoxy)-13-methyl-23,25,28-trioxa-1,3,5,9,13,14-hexaazahexacyclo[24.4.1.1~6,10~.0~2,7~.0~11,19~.0~12,16~]dotriaconta-2,4,6,8,10(32),11,14,16,18-nonaen-24-one] | 44 nM | 9 nM | 1260 nM |  |  | 
13 | O=C1OCCCc2c(Cl)cc3[nH]ncc3c2-c2ncc3c(nc(OC[C@@]45CCCN4C[C@H](F)C5)nc3c2F)N2CCCC[C@@](CF)(C2)O1 [Example 339, (26S)-18-chloro-32-fluoro-26-(fluoromethyl)-4-(((2R,7aS)-2-fluorotetrahydro-1H-pyrrolo[1,2-a]pyrrol-7a(5H)-yl)methoxy)-23,25-dioxa-1,3,5,9,14,15-hexaazahexacyclo[24.4.1.1~6,10~.0~2,7~.0~11,19~.0~12,16~]dotriaconta-2,4,6,8,10(32),11,13,16,18-nonaen-24-one] | 1350 nM | 501 nM | 826 nM |  |  | 
14 | Fc1c2ncc3c(nc(OC[C@@]45CCCN4C[C@H](F)C5)nc13)N1CCOC(C1)c1cnn(n1)CCCc1c(Cl)cc3[nH]ncc3c1-2 (stereo partly drawn) [Example 294, 9-chloro-31-fluoro-25-(((2R,7aS)-2-fluorotetrahydro-1H-pyrrolo[1,2-a]pyrrol-7a(5H)-yl)methoxy)-19-oxa-5,6,14,15,22,24,26,30,33-nonaazaheptacyclo[25.3.1.1~14,17~.1~18,22~.0~2,10~.0~3,7~.0~23,28~]tritriaconta-1(31),2,4,7,9,15,17(33),23,25,27,29-undecaene] | 20 nM | 9 nM | 55.1 nM |  |  | 
15 | CC12CN(CCO1)c1nc(OC[C@@]34CCCN3C[C@H](F)C4)nc3c(F)c(ncc13)-c1c(c(Cl)cc3[nH]ncc13)CCCc1nc2co1 (mixture of isomers) [Example 380] |  |  |  | 155 nM | 29 nM | 1690 nM
16 | Cc1cc2[nH]ncc2c2c1CC(C)COC(=O)O[C@@H]1CCCN(C1)c1nc(OC[C@@]34CCCN3C[C@H](F)C4)nc3c(F)c-2ncc13 (stereo partly drawn) [Example 111] | 15 nM | 11 nM | 187 nM |  |  | 
17 | CN1C(=O)OCCCc2c(Cl)cc3[nH]ncc3c2-c2ncc3c(nc(OC[C@@]45CCCN4C[C@H](F)C5)nc3c2F)N2CCC[C@@H]1C2 [Example 74, (17R)-9-Chloro-30-fluoro-24-(((2R,7aS)-2-fluorotetrahydro-1H-pyrrolo[1,2-a]pyrrol-7a(5H)-yl)methoxy)-16-methyl-14-oxa-5,6,16,21,23,25,29-heptaazahexacyclo[24.3.1.1˜17,21˜.0˜2,10˜.0˜3,7˜.0˜22,27˜]hentriaconta-1(30),2,4,7,9,22,24,26,28-nonaen-15-one] | 3 nM | 2 nM | 16 nM |  |  | 

— US20240294551A1 (AMGEN INC., priority 2022, published 2024)
